The numbers were not newly measured in patent publication US8105627B2, “Extended release venlafaxine tablet formulation” (priority 2003, dated 2012), which cites them from elsewhere.

The structures appear in SMILES notation. Where a name gives a salt, the structure may show the parent alone.

For the data set the following is noted: plural daily dosing regimen.

As to `COc1ccc(C(CN(C)C)C2(O)CCCCC2)cc1` (centres unmarked) [venlafaxine hydrochloride, 1-[(2-dimethylamino)-1-(4-methoxyphenyl)ethyl]cyclohexanol], the patients experiencing nausea result is “about forty five percent” and the “patients in whom vomiting occurs” value is on record as “about seventeen percent”.
